The text below walks through data of patent US20230055237A1, “COMPOUNDS AND METHODS FOR THE TREATMENT OF CYSTIC FIBROSIS” (Flatley Discovery Lab, LLC, priority 2019, published 2023).

The target of this assay is T1, CFTR (Homo sapiens, UniProt P13569, DEL508-508).
T1 construct: Primary CF airway epithelial cells were obtained from the UNC Cystic Fibrosis Tissue Procurement and Cell Culture Core; host or cells: primary CF airway epithelial cells, differentiated at the air-liquid interface
Nature of the assay: Equivalent current assay in primary CF airway epithelial cells (NAUC, combination with 1st site corrector FDL169 or VX-809). Type of assay: cell-based. The following applies: 37° C., 24 h.

The mark [1] stands for this setting: test compound 1 μM in combination with 1st site corrector VX-809 (3 μM).
Setting [2] is: test compound 3 μM in combination with 1st site corrector VX-809 (3 μM).
Where [3] appears, read: test compound 10 μM in combination with 1st site corrector VX-809 (3 μM).
Setting [4] is: test compound 1 μM in combination with 1st site corrector FDL169 (3 μM).
[5] abbreviates: test compound 3 μM in combination with 1st site corrector FDL169 (3 μM).
Setting [6] is: test compound 10 μM in combination with 1st site corrector FDL169 (3 μM).

SMILES strings stand for the structures.

T1 sequence (P13569 with tags, fused parts or gaps DEL508-508): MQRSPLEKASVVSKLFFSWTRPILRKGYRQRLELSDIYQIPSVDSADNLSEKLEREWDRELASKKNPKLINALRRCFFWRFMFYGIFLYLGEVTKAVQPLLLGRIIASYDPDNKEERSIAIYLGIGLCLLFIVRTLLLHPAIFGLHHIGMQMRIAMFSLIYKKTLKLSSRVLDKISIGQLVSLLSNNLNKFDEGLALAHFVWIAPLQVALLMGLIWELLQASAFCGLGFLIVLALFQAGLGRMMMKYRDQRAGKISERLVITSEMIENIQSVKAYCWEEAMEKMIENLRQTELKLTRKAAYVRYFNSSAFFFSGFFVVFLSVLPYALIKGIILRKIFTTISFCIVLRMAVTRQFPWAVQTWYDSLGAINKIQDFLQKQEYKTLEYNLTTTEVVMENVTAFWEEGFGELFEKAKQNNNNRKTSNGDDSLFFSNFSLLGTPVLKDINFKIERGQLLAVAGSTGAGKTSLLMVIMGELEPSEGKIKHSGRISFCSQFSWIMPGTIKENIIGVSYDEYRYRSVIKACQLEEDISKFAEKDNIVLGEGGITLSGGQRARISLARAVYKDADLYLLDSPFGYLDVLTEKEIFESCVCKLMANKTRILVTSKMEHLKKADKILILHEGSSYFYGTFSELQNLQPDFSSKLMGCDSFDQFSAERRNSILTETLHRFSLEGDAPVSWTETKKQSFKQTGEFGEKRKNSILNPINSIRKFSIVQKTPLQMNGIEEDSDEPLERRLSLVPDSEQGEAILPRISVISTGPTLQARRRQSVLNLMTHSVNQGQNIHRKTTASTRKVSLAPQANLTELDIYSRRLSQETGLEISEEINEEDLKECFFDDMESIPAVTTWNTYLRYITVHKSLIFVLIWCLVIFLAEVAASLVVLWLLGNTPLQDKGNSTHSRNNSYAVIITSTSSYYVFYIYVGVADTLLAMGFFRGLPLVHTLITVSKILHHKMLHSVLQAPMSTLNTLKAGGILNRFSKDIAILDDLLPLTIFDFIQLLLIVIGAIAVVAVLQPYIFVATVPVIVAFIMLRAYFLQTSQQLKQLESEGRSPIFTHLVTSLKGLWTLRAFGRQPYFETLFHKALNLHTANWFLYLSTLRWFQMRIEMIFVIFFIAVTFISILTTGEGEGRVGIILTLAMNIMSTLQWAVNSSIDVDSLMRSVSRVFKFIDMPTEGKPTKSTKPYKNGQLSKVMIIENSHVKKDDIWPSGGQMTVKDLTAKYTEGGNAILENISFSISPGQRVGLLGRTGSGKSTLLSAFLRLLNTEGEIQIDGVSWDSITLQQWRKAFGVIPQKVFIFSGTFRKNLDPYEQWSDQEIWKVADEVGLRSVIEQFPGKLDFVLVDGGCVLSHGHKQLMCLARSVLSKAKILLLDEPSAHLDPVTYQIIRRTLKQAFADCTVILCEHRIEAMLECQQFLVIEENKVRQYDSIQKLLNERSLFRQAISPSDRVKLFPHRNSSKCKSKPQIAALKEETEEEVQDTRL

On to `Cn1nc(NC(=O)[C@H]2[C@H]3CC(F)(F)CN3[C@]3(C(=O)Nc4c(Cl)cc(Cl)cc43)[C@H]2C(=O)O)c2cccnc21` [Example 123], for which the “Nauc @ 1 μM” value under setting [1] was “+ (NAUC “+” refers to an observed NAUC <140% of positive control)”. For the same compound, under setting [2], the “Nauc @ 3 μM” value is “+ (NAUC “+” refers to an observed NAUC <140% of positive control)”.

As to `CCC(=O)N1C(C(C)C)C(C(=O)Nc2cc(Cl)cc(Cl)c2)C(C(=O)O)C12C(=O)Nc1c(Cl)cc(Cl)cc12` (stereo not drawn) [Example 26], the “Nauc @ 3 μM” value under setting [2] was “++ (NAUC “++” refers to an observed NAUC 170-140% of positive control)”. In addition, under setting [3], the “Nauc @ 10 μM” value is “+++ (NAUC “+++” refers to an observed NAUC>170% of positive control)”.

In the case of `CN(O)C(=O)C1C(C(=O)Nc2cc(Cl)cc(Cl)c2)C2CC(F)(F)CN2C12C(=O)Nc1c(Cl)cc(Cl)cc12` (single isomer, unassigned) [Example 225b, 5,7-dichloro-N1′-(3,5-dichlorophenyl)-6′,6′-difluoro-N2′-hydroxy-N2′-methyl-2-oxo-1′,2′,5′,6′,7′,7a′-hexahydrospiro[indoline-3,3′-pyrrolizine]-1′,2′-dicarboxamide], under setting [1], the “Nauc @ 1 μM” value was “+ (NAUC “+” refers to an observed NAUC <140% of positive control)”. Further, under setting [2], the “Nauc @ 3 μM” value was “+++ (NAUC “+++” refers to an observed NAUC>170% of positive control)”. The “Nauc @ 10 μM” value under setting [3] is listed as “+++ (NAUC “+++” refers to an observed NAUC>170% of positive control)”.

Consider `O=C(O)[C@H]1[C@@H](C(=O)N(CC2CC2)c2ccccc2-c2ccccc2)[C@H]2CC(F)(F)CN2[C@]12C(=O)Nc1c(Cl)cc(Cl)cc12` [Example 180], for which, under setting [4], the “Nauc @ 1 μM” value was “+++ (NAUC “+++” refers to an observed NAUC>170% of positive control)”. Besides, under setting [5], the “Nauc @ 3 μM” value is recorded as “+++ (NAUC “+++” refers to an observed NAUC>170% of positive control)”. For the same compound, the “Nauc @ 10 μM” value under setting [6] is listed as “+ (NAUC “+” refers to an observed NAUC <140% of positive control)”.

With `O=C(O)[C@H]1[C@@H](C(=O)N(CC2(C(F)(F)F)CC2)c2cc(Cl)cc(Cl)c2)[C@H]2CC(F)(F)CN2[C@]12C(=O)Nc1c(Cl)cc(Cl)cc12` [Example 155], the “Nauc @ 1 μM” value under setting [4] was “+++ (NAUC “+++” refers to an observed NAUC>170% of positive control)”. Further, under setting [5], the “Nauc @ 3 μM” value is given as “+++ (NAUC “+++” refers to an observed NAUC>170% of positive control)”. Besides, the “Nauc @ 10 μM” value under setting [6] is “+ (NAUC “+” refers to an observed NAUC <140% of positive control)”.

Turning to `O=C(NCCc1cccc(Cl)c1)C1C2CC(F)(F)CN2C2(C(=O)Nc3c(Cl)cc(Cl)cc32)C1C(=O)O` (stereo not drawn) [Example 51], the “Nauc @ 3 μM” value under setting [2] is “+++ (NAUC “+++” refers to an observed NAUC>170% of positive control)”. The “Nauc @ 10 μM” value under setting [3] is on record as “+++ (NAUC “+++” refers to an observed NAUC>170% of positive control)”.

For `Cn1ccc2ccc(NC(=O)[C@H]3[C@H]4CC(F)(F)CN4[C@]4(C(=O)Nc5c(Cl)cc(Cl)cc54)[C@H]3C(=O)O)cc21` [Example 136], the “Nauc @ 1 μM” value under setting [4] was “+ (NAUC “+” refers to an observed NAUC <140% of positive control)”. Further, the “Nauc @ 3 μM” value under setting [5] was “+ (NAUC “+” refers to an observed NAUC <140% of positive control)”.

`CCN(C(=O)[C@H]1[C@H]2CC(F)(F)CN2[C@]2(C(=O)Nc3c(Cl)cc(Cl)cc32)[C@H]1C(=O)O)c1cc(Cl)cc(Cl)c1` [Example 171]: the “Nauc @ 1 μM” value under setting [4] is “+++ (NAUC “+++” refers to an observed NAUC>170% of positive control)”. Under setting [5], the “Nauc @ 3 μM” value is reported as “+++ (NAUC “+++” refers to an observed NAUC>170% of positive control)”. In addition, the “Nauc @ 10 μM” value under setting [6] is “+++ (NAUC “+++” refers to an observed NAUC>170% of positive control)”.

On to `O=C(Nc1cccc2c1CCCC2)[C@H]1[C@H]2CC(F)(F)CN2[C@]2(C(=O)Nc3c(Cl)cc(Cl)cc32)[C@H]1C(=O)O` [Example 131], for which the “Nauc @ 1 μM” value under setting [1] is reported as “+++ (NAUC “+++” refers to an observed NAUC>170% of positive control)”. In addition, the “Nauc @ 3 μM” value under setting [2] is recorded as “+++ (NAUC “+++” refers to an observed NAUC>170% of positive control)”.

In the case of `CC(C)(C)C(C)(C)CN(C(=O)[C@H]1[C@H]2C[C@](C)(O)CN2[C@]2(C(=O)Nc3c(Cl)cc(Cl)cc32)[C@H]1C(=O)O)c1cc(Cl)cc(Cl)c1` [Example 96], under setting [4], the “Nauc @ 1 μM” value is “+++ (NAUC “+++” refers to an observed NAUC>170% of positive control)”. Moreover, the “Nauc @ 3 μM” value under setting [5] is reported as “+++ (NAUC “+++” refers to an observed NAUC>170% of positive control)”. The “Nauc @ 10 μM” value under setting [6] is on record as “+ (NAUC “+” refers to an observed NAUC <140% of positive control)”.

As for `CN(CC1(c2cccc(C(C)(C)C)c2)CC1)C(=O)[C@H]1[C@H]2CC(F)(F)CN2[C@]2(C(=O)Nc3c(Cl)cc(Cl)cc32)[C@H]1C(=O)O` [Example 112], the “Nauc @ 1 μM” value under setting [1] is on record as “+++ (NAUC “+++” refers to an observed NAUC>170% of positive control)”. Further, the “Nauc @ 3 μM” value under setting [2] is on record as “+++ (NAUC “+++” refers to an observed NAUC>170% of positive control)”. The “Nauc @ 10 μM” value under setting [3] was “+++ (NAUC “+++” refers to an observed NAUC>170% of positive control)”.

For the compound `O=C(Nc1cc(Cl)cc(Cl)c1)C1C2CC(F)(F)CN2C2(C(=O)Nc3c(Cl)cc(Cl)cc32)C1C(=O)NO` (single isomer, unassigned) [Example 226b, 5,7-dichloro-N1′-(3,5-dichlorophenyl)-6′,6′-difluoro-N2′-hydroxy-2-oxo-1′,2′,5′,6′,7′,7a′-hexahydrospiro[indoline-3,3′-pyrrolizine]-1′,2′-dicarboxamide], the “Nauc @ 1 μM” value under setting [1] was “+ (NAUC “+” refers to an observed NAUC <140% of positive control)”. In addition, under setting [2], the “Nauc @ 3 μM” value is given as “+++ (NAUC “+++” refers to an observed NAUC>170% of positive control)”. Moreover, the “Nauc @ 10 μM” value under setting [3] is recorded as “+++ (NAUC “+++” refers to an observed NAUC>170% of positive control)”.

On to `O=C(Nc1cc(Cl)cc(Cl)c1)C1C(C(F)(F)F)NC2(C(=O)Nc3c(Cl)cc(Cl)cc32)C1C(=O)O` (stereo not drawn) [Example 35], for which the “Nauc @ 3 μM” value under setting [2] is given as “+++ (NAUC “+++” refers to an observed NAUC>170% of positive control)”. Besides, the “Nauc @ 10 μM” value under setting [3] is recorded as “+++ (NAUC “+++” refers to an observed NAUC>170% of positive control)”.

Consider `CC(C)(CN(C(=O)[C@H]1[C@H]2CC(F)(F)CN2[C@]2(C(=O)Nc3c(Cl)cc(Cl)cc32)[C@H]1C(=O)O)c1cc(Cl)cc(Cl)c1)C(F)(F)F` [Example 154], for which, under setting [4], the “Nauc @ 1 μM” value is on record as “+++ (NAUC “+++” refers to an observed NAUC>170% of positive control)”. Also, the “Nauc @ 3 μM” value under setting [5] is “+++ (NAUC “+++” refers to an observed NAUC>170% of positive control)”. The “Nauc @ 10 μM” value under setting [6] is on record as “+ (NAUC “+” refers to an observed NAUC <140% of positive control)”.

As for `O=C(NCCc1ccccc1Cl)C1C2CC(F)(F)CN2C2(C(=O)Nc3c(Cl)cc(Cl)cc32)C1C(=O)O` (stereo not drawn) [Example 50], the “Nauc @ 3 μM” value under setting [2] was “++ (NAUC “++” refers to an observed NAUC 170-140% of positive control)”. Under setting [3], the “Nauc @ 10 μM” value was “+++ (NAUC “+++” refers to an observed NAUC>170% of positive control)”.

As for `CN(C(=O)[C@H]1[C@H]2CC(F)(F)CN2C2(C(=O)Nc3c(Cl)cc(Cl)cc32)[C@H]1C(=O)O)c1cc(Cl)c(OC(F)F)c(Cl)c1` (stereo partly drawn) [Example 290], the “Nauc @ 1 μM” value under setting [1] was “++ (NAUC “++” refers to an observed NAUC 170-140% of positive control)”. In addition, the “Nauc @ 3 μM” value under setting [2] is “+++ (NAUC “+++” refers to an observed NAUC>170% of positive control)”. Moreover, the “Nauc @ 10 μM” value under setting [3] is listed as “+++ (NAUC “+++” refers to an observed NAUC>170% of positive control)”.

Take `O=C(Nc1cc(Cl)cc(Cl)c1)C1CN(S(=O)(=O)CCc2ccccc2)C2(C(=O)Nc3c(Cl)cc(Cl)cc32)C1C(=O)O` (stereo not drawn) [Example 25]: the “Nauc @ 3 μM” value under setting [2] is on record as “+ (NAUC “+” refers to an observed NAUC <140% of positive control)”. The “Nauc @ 10 μM” value under setting [3] was “++ (NAUC “++” refers to an observed NAUC 170-140% of positive control)”.

With `O=C(Nc1ccc2ccccc2c1)[C@H]1[C@H]2CC(F)(F)CN2[C@]2(C(=O)Nc3c(Cl)cc(Cl)cc32)[C@H]1C(=O)O` [Example 115], the “Nauc @ 1 μM” value under setting [1] was “+ (NAUC “+” refers to an observed NAUC <140% of positive control)”. Further, the “Nauc @ 3 μM” value under setting [2] was “+ (NAUC “+” refers to an observed NAUC <140% of positive control)”. Also, the “Nauc @ 10 μM” value under setting [3] is “+ (NAUC “+” refers to an observed NAUC <140% of positive control)”.

As to `CC(C)(C)c1cccc(CCNC(=O)C2C3CC(F)(F)CN3C3(C(=O)Nc4c(Cl)cc(Cl)cc43)C2C(=O)O)c1` (racemic) [Example 44, (1′R,2′S,3R,7a′R)-1′-((3-(tert-butyl)phenethyl)carbamoyl)-5,7-dichloro-6′,6′-difluoro-2-oxo-1′,2′,5′,6′,7′,7a′-hexahydrospiro[indoline-3,3′-pyrrolizine]-2′-carboxylic acid], under setting [2], the “Nauc @ 3 μM” value is reported as “+++ (NAUC “+++” refers to an observed NAUC>170% of positive control)”. Further, under setting [3], the “Nauc @ 10 μM” value is on record as “+++ (NAUC “+++” refers to an observed NAUC>170% of positive control)”.

As to `O=C(Nc1cc(Cl)cc(Cl)c1)C1C(C(F)(F)c2ccc(C(F)(F)F)cc2)NC2(C(=O)Nc3c(Cl)cc(Cl)cc32)C1C(=O)O` (stereo not drawn) [Example 73.a], the “Nauc @ 10 μM” value under setting [3] is reported as “+ (NAUC “+” refers to an observed NAUC <140% of positive control)”.

As to `Cn1cc(N(CC2CC2)C(=O)[C@H]2[C@H]3CC(F)(F)CN3[C@]3(C(=O)Nc4c(Cl)cc(Cl)cc43)[C@H]2C(=O)O)c(C#N)n1` [Example 168], under setting [4], the “Nauc @ 1 μM” value is listed as “+ (NAUC “+” refers to an observed NAUC <140% of positive control)”. Also, the “Nauc @ 3 μM” value under setting [5] is given as “+ (NAUC “+” refers to an observed NAUC <140% of positive control)”.
